Earlier results as cited in patent US20240424024A1, “PHARMACEUTICAL COMPOSITION AND KIT COMPRISING AN IMMUNOMODULATORY SUBSTANCE FOR TREATING DISEASES” (ellennbe GmbH, priority 2021, published 2024).

Test system: perfusion of the skin
Settings: 50 μl of 20 mmol/l MN, healthy subjects, Laser Speckle Contrast Imager; Elawa et al. 2020

COC(=O)c1cccnc1 [methyl nicotinate]
perfusion increase of the skin after topical application: reaches a stable plateau phase after five minutes
